Test results published in ChEMBL document CHEMBL3351990, “Jiangrines A-F and jiangolide from an actinobacterium, Jiangella gansuensis” (J Nat Prod, 2014).
pIC50: −log10 of the molar value.

Experiments:
RAW264.7 [1] = test: Antiinflammatory activity in mouse RAW264.7 cells assessed as inhibition of LPS-induced NO production incubated for 1 hr prior to LPS-challenge measured after 24 hrs by Greiss assay; assay type: functional, cell-based
RAW264.7 [2] = test: Cytotoxicity against mouse RAW264.7 cells assessed as cell viability at 100 uM; assay type: cell-based; details: raw264.7, 100 µM
RAW264.7 [3] = test: Antiinflammatory activity in mouse RAW264.7 cells assessed as inhibition of LPS-induced NO production at 100 uM incubated for 1 hr prior to LPS-challenge measured after 24 hrs by Greiss assay; assay type: functional

SMILES | pIC50 (RAW264.7 [1]) | Activity (RAW264.7 [2]) | inhibition at 100 µM (RAW264.7 [3]) [%]
CC(=O)NCCCCCn1cccc1C=O | 4.26 | Non-toxic | 
O=Cc1ccc(CO)n1CCc1ccc(O)cc1 | 4.23 | Non-toxic | 
O=c1[nH]cnc2c1-c1cccn1CC2 |  | Non-toxic | < 20
O=Cc1ccc([C@H](O)[C@H](O)CO)n1CCc1c[nH]c2ccccc12 (relative stereo) | 4.22 | Non-toxic | 
COC(=O)[C@@H](N)CCCNC(=N)N[N+](=O)[O-] [L-NAME] | 4.27 |  | 

Further lines, with some results ahead:

pIC50 (RAW264.7 [1]) | SMILES | Activity (RAW264.7 [2]) | inhibition at 100 µM (RAW264.7 [3]) [%]
4.52 | CO[C@H](c1ccc(C=O)n1CCc1ccc(O)cc1)[C@H](O)CO | Non-toxic | 
4.52 | CO[C@@H](c1ccc(C=O)n1CCc1ccc(O)cc1)[C@H](O)CO | Non-toxic | 
4.21 | C[C@H]1/C=C\C[C@H]2[C@@H](CC[C@@H]2O)CC(=O)OC[C@H]2O[C@@H](O1)[C@H](O)[C@@H](O)[C@@H]2O | Non-toxic | 
4.01 | O=Cc1ccc([C@H](O)[C@H](O)CO)n1CCc1ccc(O)cc1 (relative stereo) | Non-toxic | 
